The values that follow are results of earlier work, collected in PubChem BioAssay AID1259409 (Chemical Carcinogenesis Research Information System (CCRIS), 2018).

This data set has as its system rodent chemically induced tumor inhibition, incidence and multiplicity. The data set is described as follows: CCRIS tumor inhibitor studies. The conditions noted are these: Carcinogen: PHENACETIN, 62-44-2, N-BUTYL-N-(4-HYDROXYBUTYL)NITROSAMINE, 3817-11-6, Carcinogen: PHENACETIN, 62-44-2, N-BUTYL-N-(4-HYDROXYBUTYL)NITROSAMINE, 3817-11-6, Dose [Inhibitor]: 0, Route [Inhibitor]: SUBCUTANEOUS, Species: MOUSE, Strain/Sex: NON/SHI/MALE, Promoter: NONE USED.

Each structure is given as a SMILES string.

With `CC[C@H](C)[C@@H](NC(=O)[C@@H](CCC(=O)O)NC(=O)[C@@H](CO)NC(=O)[C@@H](CO)NC(=O)[C@H](NC(=O)[C@@H](CC(=O)O)NC(=O)[C@H](NC(=O)[C@H](C)NC(=O)[C@H](C)NC(=O)[C@@H](CC(=O)O)NC(=O)[C@@H](CO)NC(=O)[C@H](N)CS)C(C)C)C(C)C)C(=O)N[C@@H](C(=O)N[C@@H](C(=O)N[C@H](CCCCN)C(=O)N[C@H](CC(=O)O)C(=O)N[C@H](CC(C)C)C(=O)N[C@H](CCCCN)C(=O)N[C@H](CCC(=O)O)C(=O)N[C@H](CCCCN)C(=O)N[C@H](CCCCN)C(=O)N[C@H](CCC(=O)O)C(=O)N[C@@H](C(=O)N[C@@H](C(=O)N[C@H](CCC(=O)O)C(=O)N[C@H](CCC(=O)O)C(=O)N[C@@H](C)C(=O)N[C@H](CCC(=O)O)C(=O)O)C(C)C)C(C)C)C(C)C)[C@H](C)O`, the “tumour outcome (control, treated, inhibition, significance)” value (60 UG IN 0.1 ML SALINE 2/WK FOR 6 WK CONCURRENTLY WITH BBN TREATMENT (STUDY DURATION: 34 WK), Target Tissue: Type of Lesion: URINARY BLADDER: CARCINOMA, Dose [Carcinogen]: 2% PHENACETIN IN DIET FOR 12 WK FOLLOWED BY 0.05% BBN IN DRINKING WATER FOR 6 WK) is given as 7/20 (35%), 5/19 (26%), 26%, not significant; the “tumour outcome (control, treated, inhibition, significance)” value (60 UG IN 0.1 ML SALINE 2/WK FOR 16 WK BEGINNING POST CARCINOGEN TREATMENT (STUDY DURATION: 30 WK), Target Tissue: Type of Lesion: RENAL PELVIS: CARCINOMA, Dose [Carcinogen]: 2% PHENACETIN IN DIET FOR 8 WK FOLLOWED BY 0.05% BBN IN DRINKING WATER FOR 6 WK) is 2/11 (18%), 8/12 (67%), -272%, not significant; the “tumour outcome (control, treated, inhibition, significance)” value (60 UG IN 0.1 ML SALINE 2/WK FOR 16 WK BEGINNING POST CARCINOGEN TREATMENT (STUDY DURATION: 30 WK), Target Tissue: Type of Lesion: URINARY BLADDER: CARCINOMA, Dose [Carcinogen]: 2% PHENACETIN IN DIET FOR 8 WK FOLLOWED BY 0.05% BBN IN DRINKING WATER FOR 6 WK) is 2/11 (18%), 3/12 (25%), -39%, not significant; the “tumour outcome (control, treated, inhibition, significance)” value (60 UG IN 0.1 ML SALINE 2/WK FOR 16 WK BEGINNING POST CARCINOGEN TREATMENT (STUDY DURATION: 34 WK), Target Tissue: Type of Lesion: RENAL PELVIS: CARCINOMA, Dose [Carcinogen]: 2% PHENACETIN IN DIET FOR 12 WK FOLLOWED BY 0.05% BBN IN DRINKING WATER FOR 6 WK) is 9/20 (45%), 10/18 (56%), -24%, not significant; the “tumour outcome (control, treated, inhibition, significance)” value (60 UG IN 0.1 ML SALINE 2/WK FOR 16 WK BEGINNING POST CARCINOGEN TREATMENT (STUDY DURATION: 34 WK), Target Tissue: Type of Lesion: URINARY BLADDER: CARCINOMA, Dose [Carcinogen]: 2% PHENACETIN IN DIET FOR 12 WK FOLLOWED BY 0.05% BBN IN DRINKING WATER FOR 6 WK) was 7/20 (35%), 4/18 (22%), 37%, not significant; the “tumour outcome (control, treated, inhibition, significance)” value (60 UG IN 0.1 ML SALINE 2/WK FOR 22 WK BEGINNING POST PHENACETIN TREATMENT (STUDY DURATION: 30 WK), Target Tissue: Type of Lesion: RENAL PELVIS: CARCINOMA, Dose [Carcinogen]: 2% PHENACETIN IN DIET FOR 8 WK FOLLOWED BY 0.05% BBN IN DRINKING WATER FOR 6 WK) is on record as 2/11 (18%), 2/12 (17%), 5%, not significant. Further, the “tumour outcome (control, treated, inhibition, significance)” value is 2/11 (18%), 1/12 (8%), 56%, not significant (60 UG IN 0.1 ML SALINE 2/WK FOR 22 WK BEGINNING POST PHENACETIN TREATMENT (STUDY DURATION: 30 WK), Target Tissue: Type of Lesion: URINARY BLADDER: CARCINOMA, Dose [Carcinogen]: 2% PHENACETIN IN DIET FOR 8 WK FOLLOWED BY 0.05% BBN IN DRINKING WATER FOR 6 WK); 9/20 (45%), 13/19 (68%), -51%, not significant (60 UG IN 0.1 ML SALINE 2/WK FOR 22 WK BEGINNING POST PHENACETIN TREATMENT (STUDY DURATION: 34 WK), Target Tissue: Type of Lesion: RENAL PELVIS: CARCINOMA, Dose [Carcinogen]: 2% PHENACETIN IN DIET FOR 12 WK FOLLOWED BY 0.05% BBN IN DRINKING WATER FOR 6 WK); 7/20 (35%), 7/19 (37%), -6%, not significant (60 UG IN 0.1 ML SALINE 2/WK FOR 22 WK BEGINNING POST PHENACETIN TREATMENT (STUDY DURATION:34 WK), Target Tissue: Type of Lesion: URINARY BLADDER: CARCINOMA, Dose [Carcinogen]: 2% PHENACETIN IN DIET FOR 12 WK FOLLOWED BY 0.05% BBN IN DRINKING WATER FOR 6 WK).
